Results: patent US12637414B2, “Arylamides and methods of use thereof” (Genzyme Corporation, priority 2019, dated 2026)

Target: T1, human Cystic Fibrosis Transmembrane Conductance Regulator (CFTR) harboring the ΔF508 mutation (Homo sapiens, UniProt P13569, DEL508-508)
T1 construct: expressed in transfected cells; host or cells: H441 carcinoma line (G418 selection)
Test: H441 cell Emax and EC50: HRP-tagged ΔF508-CFTR cell surface luminescence assay
Type: cell-based
Details: H441 cells expressing ΔF508-CFTR-HRP, 27° C., two nights; for EC50: 15-point dose-response, top 24.5 μM; for Emax: NCI-H441, % of maximum VX809 signal
Outline: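 Cells express ΔF508-CFTR carrying an HRP tag in extracellular loop 4 (CMV promoter); ~10K cells/well treated with a 15-point series from 24.5 µM and incubated two nights at 27° C. Surface CFTR read by luminescence from HRP substrate. EC50 and Emax given relative to maximal VX809 (260 µM stock) signal.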

T1 sequence (P13569 with tags, fused parts or gaps DEL508-508): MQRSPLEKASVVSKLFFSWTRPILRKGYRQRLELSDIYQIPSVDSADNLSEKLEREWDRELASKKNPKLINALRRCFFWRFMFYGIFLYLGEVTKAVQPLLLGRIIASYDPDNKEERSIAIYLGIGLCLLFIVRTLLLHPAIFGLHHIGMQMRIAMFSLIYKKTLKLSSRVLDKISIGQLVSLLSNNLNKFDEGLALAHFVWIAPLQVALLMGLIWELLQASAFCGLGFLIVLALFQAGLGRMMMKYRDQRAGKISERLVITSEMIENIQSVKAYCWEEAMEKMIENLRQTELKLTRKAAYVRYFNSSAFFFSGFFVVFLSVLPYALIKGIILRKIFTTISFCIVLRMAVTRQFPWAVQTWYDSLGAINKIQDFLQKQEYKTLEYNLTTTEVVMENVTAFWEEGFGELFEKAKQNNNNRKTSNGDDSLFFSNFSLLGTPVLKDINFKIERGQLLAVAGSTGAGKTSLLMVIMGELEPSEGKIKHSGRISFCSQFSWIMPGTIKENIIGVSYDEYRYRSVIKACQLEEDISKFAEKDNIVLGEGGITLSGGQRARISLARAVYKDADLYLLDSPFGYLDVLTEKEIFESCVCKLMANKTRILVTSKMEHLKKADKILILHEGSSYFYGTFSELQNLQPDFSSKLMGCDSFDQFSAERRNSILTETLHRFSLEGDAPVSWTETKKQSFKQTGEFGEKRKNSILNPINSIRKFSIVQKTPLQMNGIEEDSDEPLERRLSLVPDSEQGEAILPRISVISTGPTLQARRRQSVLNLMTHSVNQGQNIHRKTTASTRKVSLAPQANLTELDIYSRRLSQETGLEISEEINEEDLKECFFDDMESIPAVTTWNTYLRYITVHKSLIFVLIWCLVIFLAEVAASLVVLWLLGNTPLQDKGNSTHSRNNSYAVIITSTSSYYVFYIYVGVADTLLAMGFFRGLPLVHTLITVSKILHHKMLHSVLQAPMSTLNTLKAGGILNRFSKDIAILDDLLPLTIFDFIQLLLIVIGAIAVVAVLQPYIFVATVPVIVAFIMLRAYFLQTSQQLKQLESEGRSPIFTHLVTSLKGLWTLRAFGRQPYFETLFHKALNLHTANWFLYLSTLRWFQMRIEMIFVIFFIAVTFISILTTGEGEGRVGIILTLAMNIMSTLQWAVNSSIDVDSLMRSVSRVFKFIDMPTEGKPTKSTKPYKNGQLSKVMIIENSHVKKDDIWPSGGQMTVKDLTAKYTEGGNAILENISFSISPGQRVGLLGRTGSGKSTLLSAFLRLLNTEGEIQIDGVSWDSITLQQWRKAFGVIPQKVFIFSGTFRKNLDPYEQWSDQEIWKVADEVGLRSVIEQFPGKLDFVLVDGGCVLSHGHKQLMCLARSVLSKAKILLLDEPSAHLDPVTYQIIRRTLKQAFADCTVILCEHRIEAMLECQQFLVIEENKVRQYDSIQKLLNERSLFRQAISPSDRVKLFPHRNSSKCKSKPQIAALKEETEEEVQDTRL

SMILES: O=C(O)[C@@H](N1CN(Cc2ccc(SC(F)(F)F)cc2)c2c(ccc3ccccc23)C1=O)C12CC3CC(CC(C3)C1)C2 [compound 126, (2S)-2-(1-adamantyl)-2-[4-oxo-1-[[4-(trifluoromethylsulfanyl)phenyl]methyl]-2H-benzo[h]quinazolin-3-yl]acetic acid]
- EC50: 477 nM
- Emax: 42.2%

SMILES: O=C(N[C@H](C(=O)O)C12CC3(Cl)CC(Cl)(CC(Cl)(C3)C1)C2)c1ccc2ccccc2c1NCc1ccc(SC(F)(F)F)cc1 [compound 127, (2S)-2-(3,5,7-trichloro-1-adamantyl)-2-[[1-[[4-(trifluoromethylsulfanyl)phenyl]methylamino]naphthalene-2-carbonyl]amino]acetic acid]
- EC50: 625 nM
- Emax: 75.5%

SMILES: O=C(N[C@H](C(=O)O)C12CC3CC(CC(C3)C1)C2)c1ccc2occc2c1OCc1ccc(C(F)(F)F)cc1 [compound 128, (2S)-2-(1-adamantyl)-2-[[4-[[4-(trifluoromethyl)phenyl]methoxy]benzofuran-5-carbonyl]amino]acetic acid]
- EC50: 244 nM
- Emax: 133%

SMILES: C[C@H]1N(Cc2ccc(C(F)(F)F)cc2)c2c(ccc3ccccc23)C(=O)N1[C@H](C(=O)O)C12CC3CC(CC(C3)C1)C2 [compound 129, (2S)-2-(1-adamantyl)-2-[(2S)-2-methyl-4-oxo-1-[[4-(trifluoromethyl)phenyl]methyl]-2H-benzo[h]quinazolin-3-yl]acetic acid]
- EC50: 90 nM
- Emax: 34.9%

SMILES: O=C(N[C@H](C(=O)O)C12CC3CC(Cl)(CC(Cl)(C3)C1)C2)c1ccc2ccccc2c1NCc1ccc(SC(F)(F)F)cc1 [compound 130, (2S)-2-(3,5-dichloro-1-adamantyl)-2-[[1-[[4-(trifluoromethylsulfanyl)phenyl]methylamino]naphthalene-2-carbonyl]amino]acetic acid]
- EC50: 477 nM
- Emax: 60.6%

SMILES: O=C(N[C@H](C(=O)O)C12CC3CC(CC(O)(C3)C1)C2)c1ccc2ccccc2c1NCc1ccc(SC(F)(F)F)cc1 [compound 131, (2S)-2-(3-hydroxy-1-adamantyl)-2-[[1-[[4-(trifluoromethylsulfanyl)phenyl]methylamino]naphthalene-2-carbonyl]amino]acetic acid]
- EC50: 1400 nM
- Emax: 21.7%

SMILES: CN(Cc1ccc(C(F)(F)F)cc1)c1c(CC(=O)N[C@H](C(=O)O)C23CC4CC(CC(C4)C2)C3)ccc2ccccc12 [compound 134, (2S)-2-(1-adamantyl)-2-[[2-[1-[methyl-[[4-(trifluoromethyl)phenyl]methyl]amino]-2-naphthyl]acetyl]amino]acetic acid]
- Emax: -17.5%

SMILES: O=C(O)[C@@H](N1CN(Cc2ccc(C(F)(F)F)cc2)c2ccccc2C1=O)C12CC3CC(CC(C3)C1)C2 [compound 135, (2S)-2-(1-adamantyl)-2-[4-oxo-1-[[4-(trifluoromethyl)phenyl]methyl]-2H-quinazolin-3-yl]acetic acid]
- Emax: -5.4%

SMILES: Cc1ccc2c(c1C)N(Cc1ccc(C(F)(F)F)cc1)CN([C@H](C(=O)O)C13CC4CC(CC(C4)C1)C3)C2=O [compound 136, (2S)-2-(1-adamantyl)-2-[7,8-dimethyl-4-oxo-1-[[4-(trifluoromethyl)phenyl]methyl]-2H-quinazolin-3-yl]acetic acid]
- EC50: 1580 nM
- Emax: 17%

SMILES: O=C(O)[C@@H](n1c(=O)c2ccc3ccccc3c2n(Cc2ccc(C(F)(F)F)cc2)c1=O)C12CC3CC(CC(C3)C1)C2 [compound 137, (2S)-2-(1-adamantyl)-2-[2,4-dioxo-1-[[4-(trifluoromethyl)phenyl]methyl]benzo[h]quinazolin-3-yl]acetic acid]
- EC50: 1600 nM
- Emax: 5.3%
